Molecules are shown by their SMILES.

We go through 23 molecules from patent publication US9169254B2, “Spiroimidazolone derivative” (Chugai Seiyaku Kabushiki Kaisha, priority 2009, dated 2015).

The first assay has as its target T1, human PTH1 receptor (Homo sapiens, UniProt Q03431).
T1 sequence (Q03431 27-593): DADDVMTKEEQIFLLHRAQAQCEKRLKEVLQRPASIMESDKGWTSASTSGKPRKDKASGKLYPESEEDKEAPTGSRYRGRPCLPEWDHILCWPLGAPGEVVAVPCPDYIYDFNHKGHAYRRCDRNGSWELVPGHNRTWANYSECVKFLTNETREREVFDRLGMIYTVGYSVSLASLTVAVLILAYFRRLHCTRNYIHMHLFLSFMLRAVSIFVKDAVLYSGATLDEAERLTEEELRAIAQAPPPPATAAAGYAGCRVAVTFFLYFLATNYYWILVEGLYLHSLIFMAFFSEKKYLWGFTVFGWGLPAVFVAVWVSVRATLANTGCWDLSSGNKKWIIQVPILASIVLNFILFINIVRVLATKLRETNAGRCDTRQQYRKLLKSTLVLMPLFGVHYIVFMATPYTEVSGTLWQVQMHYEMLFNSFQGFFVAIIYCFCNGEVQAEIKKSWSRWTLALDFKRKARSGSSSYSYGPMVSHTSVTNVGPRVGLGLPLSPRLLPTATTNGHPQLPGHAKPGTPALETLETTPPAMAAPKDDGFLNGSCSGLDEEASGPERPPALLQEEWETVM
Description: In vitro cAMP signal activity in HKRK-B7 cells (LLC-PK1 cells overexpressing the human PTH1 receptor). The assay is classed as cell-based. The following applies: HKRK-B7 cells; compound at 1×10^−3 M; […]; 0.1 µM.
In the case of `Cc1cc(C(=O)N2CCC(=O)CC2)cc(C)c1/C=C/S(=O)(=O)N1CCC2(CC1)N=C(c1ccc(F)c(C(F)(F)F)c1)NC2=O` [Compound 972, 8-{(E)-2-[2,6-dimethyl-4-(4-oxo-piperidine-1-carbonyl)-phenyl]-ethenesulfonyl}-2-(4-fluoro-3-trifluoromethyl-phenyl)-1,3,8-triaza-spiro[4.5]dec-1-en-4-one], the “cAMP production activity (%)” value is reported as 89%.

Still in this assay, the particulars now being: HKRK-B7 cells; compound at 1×10^−3 M; cAMP produced as percentage of that produced by hPTH(1-34) at 100 nM.
For `CC[C@H]1CC[C@H](C2=NC3(CCN(S(=O)(=O)/C=C/c4ccc(N5C(=O)NC(=O)C5(C)C)cc4C)CC3)C(=O)N2)CC1` [Compound 626, 1-(4-{(E)-2-[2-(4-ethyl-cyclohexyl)-4-oxo-1,3,8-triaza-spiro[4.5]dec-1-ene-8-sulfonyl]-vinyl}-3-methyl-phenyl)-5,5-dimethyl-imidazolidine-2,4-dione], the “cAMP production activity (%)” value worked out at 53%.
With `Cc1cc(C(=O)N(C)C)ccc1CCS(=O)(=O)N1CCC2(CC1)N=C(Cc1cccc(C(F)(F)F)c1)NC2=O` [Compound 135, 3,N,N-trimethyl-4-{2-[4-oxo-2-(3-trifluoromethyl-benzyl)-1,3,8-triaza-spiro[4.5]dec-1-ene-8-sulfonyl]-ethyl}-benzamide], the “cAMP production activity (%)” value is given as 67%.
Same read-out and setting: the figure for `CC(=O)NCc1cc(C)c(/C=C/S(=O)(=O)N2CCC3(CC2)N=C(C2CCC(C)CC2)NC3=O)c(C)c1` (centres unmarked) [Compound 522, N-(3,5-dimethyl-4-{(E)-2-[2-(4-methyl-cyclohexyl)-4-oxo-1,3,8-triaza-spiro[4.5]dec-1-ene-8-sulfonyl]-vinyl}-benzyl)-acetamide] is 82%; for `Cc1ccccc1CNS(=O)(=O)N1CCC2(CC1)N=C(C1CCC(C)CC1)NC2=O` (centres unmarked) [Compound 1372, 2-(4-Methyl-cyclohexyl)-4-oxo-1,3,8-triaza-spiro[4.5]dec-1-ene-8-sulfonic acid 2-methyl-benzylamide] it is 36%.
On to `CCCOCCCCCC1=NC2(CCN(S(=O)(=O)CCc3c(C)cc(N(C)C(N)=O)cc3C)CC2)C(=O)N1` [Compound 1352, 1-(3,5-dimethyl-4-{2-[4-oxo-2-(5-propoxy-pentyl)-1,3,8-triaza-spiro[4.5]dec-1-ene-8-sulfonyl]-ethyl}-phenyl)-1-methyl-urea], for which the “cAMP production activity (%)” value stood at 78%.
As to `CC(=O)N(CCOCCF)c1cc(C)c(CCS(=O)(=O)N2CCC3(CC2)N=C(C2CCC(CCC(F)(F)F)CC2)NC3=O)c(C)c1` (centres unmarked) [Compound 766, N-[3,5-dimethyl-4-(2-{4-oxo-2-[4-(3,3,3-trifluoro-propyl)-cyclohexyl]-1,3,8-triaza-spiro[4.5]dec-1-ene-8-sulfonyl}-ethyl)-phenyl]-N-[2-(2-fluoro-ethoxy)-ethyl]-acetamide], the “cAMP production activity (%)” value is listed as 88%.
With `Cc1cc(C(=O)N2CCC(C)(O)CC2)cc(C)c1/C=C/S(=O)(=O)N1CCC2(CC1)N=C(c1ccc3c(c1)OC(F)(F)C(F)(F)O3)NC2=O` [Compound 1212, 8-{(E)-2-[4-(4-hydroxy-4-methyl-piperidine-1-carbonyl)-2,6-dimethyl-phenyl]-ethenesulfonyl}-2-(2,2,3,3-tetrafluoro-2,3-dihydro-benzo[1,4]dioxin-6-yl)-1,3,8-triaza-spiro[4.5]dec-1-en-4-one], the “cAMP production activity (%)” value is 96%.
On to `Cc1cc(C2=NC3(CCN(S(=O)(=O)CCc4c(C)cc(C(=O)N5CCC(C)(O)CC5)cc4C)CC3)C(=O)N2)ccc1C(F)(F)F` [Compound 1235, 8-{2-[4-(4-hydroxy-4-methyl-piperidine-1-carbonyl)-2,6-dimethyl-phenyl]-ethanesulfonyl}-2-(3-methyl-4-trifluoromethyl-phenyl)-1,3,8-triaza-spiro[4.5]dec-1-en-4-one], for which the “cAMP production activity (%)” value was 98%.
For `CC(=O)NCc1cc(C)c(CCS(=O)(=O)N2CCC3(CC2)N=C(C2CCC(C)CC2)NC3=O)c(C)c1` (centres unmarked) [Compound 773, N-(3,5-dimethyl-4-{2-[2-(4-methyl-cyclohexyl)-4-oxo-1,3,8-triaza-spiro[4.5]dec-1-ene-8-sulfonyl]-ethyl}-benzyl)-acetamide], the “cAMP production activity (%)” value came out at 86%.
As to `Cc1cc(CNC(=O)OC(C)(C)C)ccc1CCS(=O)(=O)N1CCC2(CC1)N=C(C1CCOCC1)NC2=O` [Compound 165, (3-methyl-4-{2-[4-oxo-2-(tetrahydro-pyran-4-yl)-1,3,8-triaza-spiro[4.5]dec-1-ene-8-sulfonyl]-ethyl}-benzyl)-carbamic acid tert-butyl ester], the “cAMP production activity (%)” value worked out at 37%.
`Cc1cc(C(=O)N(C)C)ccc1CCS(=O)(=O)N1CCC2(CC1)N=C(c1ccc(OC(F)(F)F)cc1)NC2=O` [Compound 106, 3,N,N-trimethyl-4-{2-[4-oxo-2-(4-trifluoromethoxy-phenyl)-1,3,8-triaza-spiro[4.5]dec-1-ene-8-sulfonyl]-ethyl}-benzamide]: the “cAMP production activity (%)” value is 94%.
For `Cc1cc(C(=O)N2CCC(C)(O)CC2)cc(C)c1/C=C/S(=O)(=O)N1CCC2(CC1)N=C(c1ccc(COc3cccc(C(F)(F)F)c3)cc1)NC2=O` [Compound 1191, 8-{(E)-2-[4-(4-hydroxy-4-methyl-piperidine-1-carbonyl)-2,6-dimethyl-phenyl]-ethenesulfonyl}-2-[4-(3-trifluoromethyl-phenoxymethyl)-phenyl]-1,3,8-triaza-spiro[4.5]dec-1-en-4-one], the “cAMP production activity (%)” value worked out at 66%.
For `O=C1NC(C2CCCCC2)=NC12CCN(S(=O)(=O)CC/C=C/c1cccc3[nH]ccc13)CC2` [Compound 251, 2-Cyclohexyl-8-[(E)-4-(1H-indol-4-yl)-but-3-ene-1-sulfonyl]-1,3,8-triaza-spiro[4.5]dec-1-en-4-one], the “cAMP production activity (%)” value is recorded as 28%.
`Cc1cc(NC(=O)[C@@H](N)CO)ccc1CCS(=O)(=O)N1CCC2(CC1)N=C(c1cccc(C(F)(F)F)c1)NC2=O` [Compound 886, (S)-2-amino-3-hydroxy-N-(3-methyl-4-{2-[4-oxo-2-(3-trifluoromethyl-phenyl)-1,3,8-triaza-spiro[4.5]dec-1-ene-8-sulfonyl]-ethyl}-phenyl)-propionamide]: the “cAMP production activity (%)” value was 68%.
The same measure, in the same setting: the figure for `CCCCOC1CCC(C2=NC3(CCN(S(=O)(=O)CCc4ccc(NC(C)=O)cc4C)CC3)C(=O)N2)CC1` (centres unmarked) [Compound 912, N-(4-{2-[2-(4-butoxy-cyclohexyl)-4-oxo-1,3,8-triaza-spiro[4.5]dec-1-ene-8-sulfonyl]-ethyl}-3-methyl-phenyl)-acetamide] is 98%.
Regarding `Cc1cc(C(=O)N2CCC(C)(O)CC2)cc(C)c1/C=C/S(=O)(=O)N1CCC2(CC1)N=C(c1ccc(F)c(C)c1C)NC2=O` [Compound 1192, 2-(4-fluoro-2,3-dimethyl-phenyl)-8-{(E)-2-[4-(4-hydroxy-4-methyl-piperidine-1-carbonyl)-2,6-dimethyl-phenyl]-ethenesulfonyl}-1,3,8-triaza-spiro[4.5]dec-1-en-4-one], the “cAMP production activity (%)” value came to 100%.
With `Cc1cc(C(=O)N2CCCC2)ccc1CCS(=O)(=O)N1CCC2(CC1)N=C(c1ccc(F)c(C(F)(F)F)c1)NC2=O` [Compound 856, 2-(4-fluoro-3-trifluoromethyl-phenyl)-8-{2-[2-methyl-4-(pyrrolidine-1-carbonyl)-phenyl]-ethanesulfonyl}-1,3,8-triaza-spiro[4.5]dec-1-en-4-one], the “cAMP production activity (%)” value is given as 81%.
As to `CC(=O)N(C)Cc1cc(C)c(CCS(=O)(=O)N2CCC3(CC2)N=C(C2CCC(CCC(F)(F)F)CC2)NC3=O)c(C)c1` (centres unmarked) [Compound 784, N-[3,5-dimethyl-4-(2-{4-oxo-2-[4-(3,3,3-trifluoro-propyl)-cyclohexyl]-1,3,8-triaza-spiro[4.5]dec-1-ene-8-sulfonyl}-ethyl)-benzyl]-N-methyl-acetamide], the “cAMP production activity (%)” value was 84%.
With `CC(=O)N(CCO)c1cc(C)c(CCS(=O)(=O)N2CCC3(CC2)N=C(c2ccc(F)c(C(F)(F)F)c2)NC3=O)c(C)c1` [Compound 794, N-(4-{2-[2-(4-fluoro-3-trifluoromethyl-phenyl)-4-oxo-1,3,8-triaza-spiro[4.5]dec-1-ene-8-sulfonyl]-ethyl}-3,5-dimethyl-phenyl)-N-(2-hydroxy-ethyl)-acetamide], the “cAMP production activity (%)” value is 76%.
On the same count and under the same terms, the figure for `Cc1cc(N2CCC(=O)NC2=O)cc(C)c1/C=C/S(=O)(=O)N1CCC2(CC1)N=C(C1CCC(C)CC1)NC2=O` (centres unmarked) [Compound 587, 1-(3,5-dimethyl-4-{(E)-2-[2-(4-methyl-cyclohexyl)-4-oxo-1,3,8-triaza-spiro[4.5]dec-1-ene-8-sulfonyl]-vinyl}-phenyl)-dihydro-pyrimidine-2,4-dione] is 53%; for `CCCCCCCCCC1=NC2(CCN(S(=O)(=O)CCc3c(C)cc(C(=O)O)cc3C)CC2)C(=O)N1` [Compound 796, 3,5-dimethyl-4-[2-(2-nonyl-4-oxo-1,3,8-triaza-spiro[4.5]dec-1-ene-8-sulfonyl)-ethyl]-benzoic acid] it is 64%.
Still for that read-out and setting: then `Cc1cc(N(C)C(N)=O)cc(C)c1CC(F)(F)S(=O)(=O)N1CCC2(CC1)N=C(c1cccc(OC(F)(F)F)c1)NC2=O` [Compound 1085, 1-(4-{2,2-Difluoro-2-[4-oxo-2-(3-trifluoromethoxy-phenyl)-1,3,8-triaza-spiro[4.5]dec-1-ene-8-sulfonyl]-ethyl}-3,5-dimethyl-phenyl)-1-methyl-urea], with 100%.
